Laboratory results reported in patent US10376520B2, “Methods for the treatment of cardiovascular disorders” (Galapagos NV, priority 2015, dated 2019).

System: RA patients
Experiment: [HDL] determination, Study 1 (RA patients, add-on to MTX)
Format: in vivo, human
Protocol: Double-blind, placebo-controlled add on study in subjects with moderately to severely active RA who have an inadequate response to methotrexate (MTX) (oral or parenteral).
595 subjects randomized to one of 6 dose regimens of Compound 1 (dosed as a [Compound 1:HCl:3H2O]) (3 dose levels administered either once or twice daily) or placebo on top of each subject's stable dose of MTX.
Compound 1 (dosed as a [Compound 1:HCl:3H2O]) is dosed for twelve weeks once daily (q.d.) (50 mg, 100 mg or 200 mg) or twice daily (b.i.d.) (25 mg, 50 mg or 100 mg); or placebo.
At Week 12, the subjects on placebo who have not achieved 20% improvement in swollen joint count (SJC66) and tender joint count (TJC68) are re-randomized automatically to receive Compound 1 (dosed as a [Compound 1:HCl:3H2O]) either at 100 mg q.d. or 50 mg b.i.d. doses in a blinded fashion; subjects on 50 mg q.d. who have not achieved 20% improvement in SJC66 and TJC68 will be assigned to 100 mg q.d. and subjects on 25 mg b.i.d. that have not achieved a 20% improvement in SJC66 and TJC68 will be assigned to 50 mg b.i.d. Subjects who switch treatment at week 12 are handled as if they discontinued at week 12 for the purpose of statistical analysis, whereas subjects in the other groups will maintain their randomized treatment until Week 24.
This assay relies on a homogeneous enzymatic colorimetric test. In the presence of magnesium ions, dextran sulfate selectively forms water-soluble complexes with LDL, VLDL and chylomicrons which are resistant to PEG-modified enzymes.
The cholesterol concentration of [HDL]-cholesterol is determined enzymatically by cholesterol esterase and cholesterol oxidase coupled with PEG to the amino groups (approx. 40%).
In the presence of peroxidase, the hydrogen peroxide generated reacts with 4-amino-antipyrine and Sodium N-(2-hydroxy-3-sulfopropyl)-3,5-dimethoxyaniline (HSDA) to form a purple-blue dye. The color intensity of this dye is directly proportional to the cholesterol concentration and is measured photometrically.
Human serum and plasma samples [HDL] determination was done on a Roche/Hitachi Cobas c 701/702 system which automatically calculate the analyte concentration of each sample. Samples containing precipitates are centrifuged before performing the assay.

[1] = continued 50 mg q.d. (N = 63), week 4
[2] = continued 50 mg q.d. (N = 63), week 8
[3] = continued 50 mg q.d. (N = 63), week 12
[4] = continued 50 mg q.d. (N = 63), week 16
[5] = continued 50 mg q.d. (N = 63), week 20
[6] = continued 50 mg q.d. (N = 63), week 24
[7] = continued 100 mg b.i.d. (N = 84), week 1
[8] = continued 100 mg b.i.d. (N = 84), week 2
[9] = continued 100 mg b.i.d. (N = 84), week 4
[10] = continued 100 mg b.i.d. (N = 84), week 8
[11] = continued 100 mg b.i.d. (N = 84), week 12
[12] = continued 100 mg b.i.d. (N = 84), week 16
[13] = continued 100 mg b.i.d. (N = 84), week 20
[14] = continued 100 mg b.i.d. (N = 84), week 24
[15] = continued 100 mg q.d. (N = 85), week 1
[16] = continued 100 mg q.d. (N = 85), week 2
[17] = continued 100 mg q.d. (N = 85), week 4
[18] = continued 100 mg q.d. (N = 85), week 8
[19] = continued 100 mg q.d. (N = 85), week 12
[20] = continued 100 mg q.d. (N = 85), week 16
[21] = continued 100 mg q.d. (N = 85), week 20
[22] = continued 100 mg q.d. (N = 85), week 24
[23] = continued 200 mg q.d. (N = 86), week 1
[24] = continued 200 mg q.d. (N = 86), week 2

## O=C(Nc1nc2cccc(-c3ccc(CN4CCS(=O)(=O)CC4)cc3)n2n1)C1CC1 [Compound 1, cyclopropanecarboxylic acid {5-[4-(1,1-dioxo-thiomorpholin-4-ylmethyl)-phenyl]-[1,2,4]triazolo[1,5-a]pyridin-2yl}-amide]
[1]
  [HDL] Mean percentage CFB - 24 weeks results: 4.87%
  [HDL] Median CFB - 24 weeks results: 0.05 mmol/L
[2]
  [HDL] Mean CFB - 24 weeks results: 0.06 mmol/L
  [HDL] Mean percentage CFB - 24 weeks results: 5.57%
  [HDL] Median CFB - 24 weeks results: 0.10 mmol/L
[3]
  [HDL] Mean CFB - 24 weeks results: 0.08 mmol/L
  [HDL] Mean percentage CFB - 24 weeks results: 7.86%
  [HDL] Median CFB - 24 weeks results: 0.06 mmol/L
[4]
  [HDL] Mean CFB - 24 weeks results: 0.08 mmol/L
  [HDL] Mean percentage CFB - 24 weeks results: 6.63%
  [HDL] Median CFB - 24 weeks results: 0.10 mmol/L
[5]
  [HDL] Mean CFB - 24 weeks results: 0.10 mmol/L
  [HDL] Mean percentage CFB - 24 weeks results: 8.81%
  [HDL] Median CFB - 24 weeks results: 0.10 mmol/L
[6]
  [HDL] Mean CFB - 24 weeks results: 0.17 mmol/L
  [HDL] Mean percentage CFB - 24 weeks results: 14.22%
  [HDL] Median CFB - 24 weeks results: 0.15 mmol/L
[7]
  [HDL] Mean CFB - 24 weeks results: 0.12 mmol/L
  [HDL] Mean percentage CFB - 24 weeks results: 9.40%
  [HDL] Median CFB - 24 weeks results: 0.10 mmol/L
[8]
  [HDL] Mean CFB - 24 weeks results: 0.20 mmol/L
  [HDL] Mean percentage CFB - 24 weeks results: 15.20%
  [HDL] Median CFB - 24 weeks results: 0.18 mmol/L
[9]
  [HDL] Mean CFB - 24 weeks results: 0.25 mmol/L
  [HDL] Mean percentage CFB - 24 weeks results: 19.54%
  [HDL] Median CFB - 24 weeks results: 0.25 mmol/L
[10]
  [HDL] Mean CFB - 24 weeks results: 0.26 mmol/L
  [HDL] Mean percentage CFB - 24 weeks results: 21.15%
  [HDL] Median CFB - 24 weeks results: 0.25 mmol/L
[11]
  [HDL] Mean CFB - 24 weeks results: 0.30 mmol/L
  [HDL] Mean percentage CFB - 24 weeks results: 23.14%
  [HDL] Median CFB - 24 weeks results: 0.25 mmol/L
[12]
  [HDL] Mean CFB - 24 weeks results: 0.27 mmol/L
  [HDL] Mean percentage CFB - 24 weeks results: 21.09%
  [HDL] Median CFB - 24 weeks results: 0.28 mmol/L
[13]
  [HDL] Mean CFB - 24 weeks results: 0.28 mmol/L
  [HDL] Mean percentage CFB - 24 weeks results: 21.88%
  [HDL] Median CFB - 24 weeks results: 0.29 mmol/L
[14]
  [HDL] Mean CFB - 24 weeks results: 0.29 mmol/L
  [HDL] Mean percentage CFB - 24 weeks results: 22.68%
  [HDL] Median CFB - 24 weeks results: 0.30 mmol/L
[15]
  [HDL] Mean CFB - 24 weeks results: 0.05 mmol/L
  [HDL] Mean percentage CFB - 24 weeks results: 5.43%
  [HDL] Median CFB - 24 weeks results: 0.06 mmol/L
[16]
  [HDL] Mean CFB - 24 weeks results: 0.07 mmol/L
  [HDL] Mean percentage CFB - 24 weeks results: 7.02%
  [HDL] Median CFB - 24 weeks results: 0.07 mmol/L
[17]
  [HDL] Mean CFB - 24 weeks results: 0.11 mmol/L
  [HDL] Mean percentage CFB - 24 weeks results: 9.40%
  [HDL] Median CFB - 24 weeks results: 0.13 mmol/L
[18]
  [HDL] Mean CFB - 24 weeks results: 0.09 mmol/L
  [HDL] Mean percentage CFB - 24 weeks results: 8.18%
  [HDL] Median CFB - 24 weeks results: 0.11 mmol/L
[19]
  [HDL] Mean CFB - 24 weeks results: 0.10 mmol/L
  [HDL] Mean percentage CFB - 24 weeks results: 8.49%
  [HDL] Median CFB - 24 weeks results: 0.10 mmol/L
[20]
  [HDL] Mean CFB - 24 weeks results: 0.09 mmol/L
  [HDL] Mean percentage CFB - 24 weeks results: 7.94%
  [HDL] Median CFB - 24 weeks results: 0.10 mmol/L
[21]
  [HDL] Mean CFB - 24 weeks results: 0.15 mmol/L
  [HDL] Mean percentage CFB - 24 weeks results: 12.24%
  [HDL] Median CFB - 24 weeks results: 0.14 mmol/L
[22]
  [HDL] Mean CFB - 24 weeks results: 0.15 mmol/L
  [HDL] Mean percentage CFB - 24 weeks results: 12.17%
  [HDL] Median CFB - 24 weeks results: 0.15 mmol/L
[23]
  [HDL] Mean CFB - 24 weeks results: 0.11 mmol/L
  [HDL] Mean percentage CFB - 24 weeks results: 9.42%
  [HDL] Median CFB - 24 weeks results: 0.13 mmol/L
[24]
  [HDL] Mean CFB - 24 weeks results: 0.20 mmol/L
  [HDL] Mean percentage CFB - 24 weeks results: 16.66%
  [HDL] Median CFB - 24 weeks results: 0.20 mmol/L
Continued 200 mg q.d. (N = 86), week 4
  [HDL] Mean CFB - 24 weeks results: 0.24 mmol/L
